Values quoted from earlier work in patent EP0279778B1, “New strain belonging to genus Thermus, new beta-galactosidase and process for producing same” (Research Development Corporation of Japan, priority 1987, dated 1988).

Columns and labels:
[1] = test system: Bacillus stearothermophilus β-galactosidase (Enzyme of Precedent 5); conditions: 10mM
[2] = test system: Thermus strain 4-1A β-galactosidase (Enzyme of Precedent 3); conditions: 56mM

## OC[C@H]1OC(O)[C@H](O)[C@@H](O)[C@H]1O (stereo partly shown) [galactose]
[1]
  Inhibition by reaction product: 71%
[2]
  Inhibition by reaction product: 52%

## OC[C@H]1OC(O)[C@H](O)[C@@H](O)[C@@H]1O (stereo partly shown) [glucose]
[1]
  Inhibition by reaction product: 20%
[2]
  Inhibition by reaction product: 63%
